In test [1] the test system is Jun/AP1activation. As to the kind of experiment: Selectivity: unrelated signal transduction pathway Jun/AP1 activation. Type of test: cell-based.
The test system of test [2] is human MB D283 cells. Briefly: Proliferation (BrdU), viability (MTS) and cell death (Trypan Blue) of MB D283 cells. The class given is cell-based. As to conditions: 48 h. How it is done: FIG. 11. (A) Human MB D283 cells were treated with different concentrations of Glabrescione B as indicated for 48 h. Inhibition of cell proliferation was measured as percentage of BrdU incorporation in comparison to DMSO (0.5%, vehicle) treated sample. (B) Human MB D283 cells were treated for 48 h with increasing concentrations of Glabrescione B as indicated. After 48 h, CellTiter 96® Aqueous One Solution Reagent was added to each well according to the manufacturer's instructions. After one hour in culture the cell viability (expressed in % viability) was determined by measuring the absorbance at 490 nm comparing treatment with DMSO (0.5%, vehicle) control.
FIG. 12. […]
A biological assay was performed in cerebellar neural progenitors cells obtained from 4-days-old mice, when they are actively proliferating under Sonic Hedgehog (Shh) stimulus. As expected, treatment of these cells with Shh increased the proliferation rate, as evaluated by BrdU-incorporation assay. […]
More important, Glabrescione B was able to promote cell death of D283 MB cells, as reported by Trypan Blue count assay (FIG. 12). […] Cell death was measured by Trypan Blue (Sigma, cat. #T8154) exclusion counting at least 200 cells, in duplicate samples. All described assays were evaluated at 48 h after treatment.

Broadly, the inhibition is the share of the control response that was lost under treatment. Consider `COc1cc(OC)c2c(=O)c(-c3ccc(OCC=C(C)C)c(OCC=C(C)C)c3)coc2c1` [Glabrescione B, 3-(3′,4′-bis(3-methylbut-2-enyloxy)phenyl)-5,7-dimethoxy-4H-chromen-4-one], for which, in test [1], the inhibition at 30 µM is 0%. In test [2], the “percentage of cell death (Trypan Blue)” value is given as “increase of the percentage of cell death, in a dose-dependent manner”. Also, the growth rate inhibition in test [2] (dose range of 1-50 μM, MTS and BrdU incorporation) is listed as 70-95%.

These data come from US10093642B2, “Multitarget hedgehog pathway inhibitors and uses thereof” (UNIVERSITA' DEGLI STUDI DI SIENA, priority 2013, dated 2018).
